According to patent US10941157B2, “Pesticidal compositions and uses thereof” (Gilead Apollo, LLC, priority 2015, dated 2021):
Converted amounts (≈) assume the structure as drawn. Like-named read-outs stand apart in the source and are kept apart here.

Key:
Type in all cases: cell-based
Septoria tritici (St) = test: In vitro pathogen growth inhibition assay, St; settings: Zymoseptoria tritici, 48 h
Outline: (§1)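 Spores in 17% V8 liquid medium, or 1.5 mm Rs mycelial plugs in ¼ PDB, incubated with compound; final concentration checked by OD600 for precipitation. OD readings at 24 and 48 h, blank-subtracted, plus visual ratings; value is concentration giving ≥90% growth inhibition.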

[1] = system: Phytophthora capsici (Pc); test: In vitro pathogen growth inhibition assay, Pc; settings: 48 h
Outline: (§2)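 Spores of Dm, Fv and Pc were diluted in 17% V8 liquid medium; Rs used 1.5 mm mycelial plugs in ¼ PDB. Compounds from 2.5 mg/ml DMSO stocks were combined with inoculum, growth was read by OD600 at 24 and 48 h with blank subtraction, and the reported value is the concentration giving ≥90% inhibition.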

[2] = system: Fusarium virguliforme (Fv); test: In vitro pathogen growth inhibition assay, Fv
Outline: as §2

[3] = system: Collectotrichum graminicola (Cg); test: In vitro pathogen growth inhibition assay, Cg; settings: 48 h
Outline: as §1

Rhizoctonia solani (Rs) = test: In vitro pathogen growth inhibition assay, Rs (mycelial plugs); settings: Rhizoctonia solani, 48 h
Outline: as §2

Diplodia maydis (Dm) = test: In vitro pathogen growth inhibition assay, Dm; settings: Stenocarpella maydis, 48 h
Outline: as §2

Botrtyis cinerea (Bc) = test: In vitro pathogen growth inhibition assay, Bc; settings: 48 h
Outline: as §1

[4] = system: Fusarium moniliforme (Fm); test: In vitro pathogen growth inhibition assay, Fm; settings: Fusarium verticillioides
Outline: as §1

[5] = concentration sufficient to ≥90% inhibition of growth, 48 hours vs 2% DMSO control, read-out: Compound Concentration (ppm) for ≥90% inhibition, St
[6] = concentration sufficient to ≥90% inhibition of growth, 48 hours vs 2% DMSO control, read-out: Compound Concentration (ppm) for ≥90% inhibition, Pc
[7] = concentration sufficient to ≥90% inhibition of growth, 48 hours vs 2% DMSO control, read-out: Compound Concentration (ppm) for ≥90% inhibition, Fv
[8] = concentration sufficient to ≥90% inhibition of growth, 48 hours vs 2% DMSO control, read-out: Compound Concentration (ppm) for ≥90% inhibition, Cg
[9] = concentration sufficient to ≥90% inhibition of growth, 48 hours vs 2% DMSO control, read-out: Compound Concentration (ppm) for ≥90% inhibition, Rs
[10] = concentration sufficient to ≥90% inhibition of growth, 48 hours vs 2% DMSO control, read-out: Compound Concentration (ppm) for ≥90% inhibition, Dm
[11] = concentration sufficient to ≥90% inhibition of growth, 48 hours vs 2% DMSO control, read-out: Compound Concentration (ppm) for ≥90% inhibition, Bc
[12] = concentration sufficient to ≥90% inhibition of growth, 48 hours vs 2% DMSO control, read-out: Compound Concentration (ppm) for ≥90% inhibition, Fm
[13] = ≥90% inhibition, 48 hours vs 2% DMSO control, read-out: Compound Concentration (ppm) sufficient for ≥90% inhibition of growth, St
[14] = ≥90% inhibition, 48 hours vs 2% DMSO control, read-out: Compound Concentration (ppm) sufficient for ≥90% inhibition of growth, Pc
[15] = ≥90% inhibition, 48 hours vs 2% DMSO control, read-out: Compound Concentration (ppm) sufficient for ≥90% inhibition of growth, Fv
[16] = ≥90% inhibition, 48 hours vs 2% DMSO control, read-out: Compound Concentration (ppm) sufficient for ≥90% inhibition of growth, Cg
[17] = ≥90% inhibition, mycelial plugs, 48 hours vs 2% DMSO control, read-out: Compound Concentration (ppm) sufficient for ≥90% inhibition of growth, Rs
[18] = ≥90% inhibition, 48 hours vs 2% DMSO control, read-out: Compound Concentration (ppm) sufficient for ≥90% inhibition of growth, Dm
[19] = ≥90% inhibition, 48 hours vs 2% DMSO control, read-out: Compound Concentration (ppm) sufficient for ≥90% inhibition of growth, Bc
[20] = ≥90% inhibition, 48 hours vs 2% DMSO control, read-out: Compound Concentration (ppm) sufficient for ≥90% inhibition of growth, Fm
[21] = ≥90% growth inhibition, 48 hours, vs 2% DMSO control, read-out: Compound Concentration (ppm) sufficient for ≥90% inhibition of St
[22] = ≥90% growth inhibition, 48 hours, vs 2% DMSO control, read-out: Compound Concentration (ppm) sufficient for ≥90% inhibition of Pc
[23] = ≥90% growth inhibition, 48 hours, vs 2% DMSO control, read-out: Compound Concentration (ppm) sufficient for ≥90% inhibition of Fv
[24] = ≥90% growth inhibition, 48 hours, vs 2% DMSO control, read-out: Compound Concentration (ppm) sufficient for ≥90% inhibition of Cg
[25] = ≥90% growth inhibition, mycelial plugs, 48 hours, vs 2% DMSO control, read-out: Compound Concentration (ppm) sufficient for ≥90% inhibition of Rs
[26] = ≥90% growth inhibition, 48 hours, vs 2% DMSO control, read-out: Compound Concentration (ppm) sufficient for ≥90% inhibition of Dm
[27] = ≥90% growth inhibition, 48 hours, vs 2% DMSO control, read-out: Compound Concentration (ppm) sufficient for ≥90% inhibition of Bc
[28] = ≥90% growth inhibition, 48 hours, vs 2% DMSO control, read-out: Compound Concentration (ppm) sufficient for ≥90% inhibition of Fm

Row | Structure (SMILES) | IC90 (Septoria tritici (St); [13]) [µg/mL] | IC90 [1, 14] [µg/mL] | IC90 [2, 15] [µg/mL] | IC90 [3, 16] [µg/mL] | IC90 (Rhizoctonia solani (Rs); [17]) [µg/mL] | IC90 (Diplodia maydis (Dm); [18]) [µg/mL] | IC90 (Botrtyis cinerea (Bc); [19]) [µg/mL] | IC90 [4, 20] [µg/mL] | IC90 (Septoria tritici (St); [21]) [µg/mL] | IC90 [1, 22] [µg/mL] | IC90 [2, 23] [µg/mL] | IC90 [3, 24] [µg/mL] | IC90 (Rhizoctonia solani (Rs); [25]) [µg/mL] | IC90 (Diplodia maydis (Dm); [26]) [µg/mL] | IC90 (Botrtyis cinerea (Bc); [27]) [µg/mL] | IC90 [4, 28] [µg/mL] | further results
1 | COc1ccccc1[C@@H](O)Cn1c(=O)n(C(C)(C)C(=O)N2CCCC2)c(=O)c2c(C)c(-n3nccn3)sc21 [Compound I-215] | – | – | – | – | – | – | – | – | – | – | – | – | – | – | – | – | IC90 (Septoria tritici (St); [5]): > 50 µg/mL; IC90 [1, 6]: > 50 µg/mL; IC90 [2, 7]: 10 µg/mL (≈ 18.6 µM); IC90 [3, 8]: 50 µg/mL (≈ 92.8 µM); IC90 (Rhizoctonia solani (Rs); [9]): 0.08 µg/mL (≈ 0.149 µM); IC90 (Diplodia maydis (Dm); [10]): > 50 µg/mL; IC90 (Botrtyis cinerea (Bc); [11]): 10 µg/mL (≈ 18.6 µM); IC90 [4, 12]: 10 µg/mL (≈ 18.6 µM)
2 | COc1ccccc1[C@H](Cn1c(=O)n(C(C)(C)C(=O)N2CCCC2)c(=O)c2c(C)c(-n3cccn3)sc21)OCC(C)C [Compound I-120] | > 50 | > 50 | 10 (≈ 16.8 µM) | 2 (≈ 3.37 µM) | 2 (≈ 3.37 µM) | 2 (≈ 3.37 µM) | 2 (≈ 3.37 µM) | 0.4 (≈ 0.674 µM) | – | – | – | – | – | – | – | – | –
3 | COc1ccccc1[C@H](Cn1c(=O)n(C(C)(C)C(=O)N2CCCCC2)c(=O)c2c(C)c(-n3cccn3)sc21)OC(C)C [Compound I-047] | > 50 | > 50 | 0.4 (≈ 0.674 µM) | ≥ 2 | 2 (≈ 3.37 µM) | 2 (≈ 3.37 µM) | 0.4 (≈ 0.674 µM) | 0.08 (≈ 0.135 µM) | – | – | – | – | – | – | – | – | –
4 | CCOC(=O)c1sc2c(c1C)c(=O)n(C(C)(C)C(=O)NC(C)C)c(=O)n2C[C@H](OCCOC)c1cc(F)ccc1OC [Compound I-177] | – | – | – | – | – | – | – | – | > 50 | > 50 | 0.4 (≈ 0.658 µM) | 2 (≈ 3.29 µM) | 10 (≈ 16.5 µM) | 2 (≈ 3.29 µM) | 2 (≈ 3.29 µM) | 0.08 (≈ 0.132 µM) | –
5 | COc1ccc(Br)cc1[C@H](Cn1c(=O)n(C(C)(C)C(=O)NC(C)C)c(=O)c2c(C)c(-n3nccn3)sc21)OCC(C)(C)C#N [Compound I-270] | – | – | – | – | – | – | – | – | > 50 | > 50 | 0.4 (≈ 0.583 µM) | 2 (≈ 2.91 µM) | > 50 | 2 (≈ 2.91 µM) | 0.4 (≈ 0.583 µM) | 0.08 (≈ 0.117 µM) | –
6 | COc1ccc(F)cc1[C@H](Cn1c(=O)n(CC(=O)N2CCCC2)c(=O)c2c(C)c(-n3nccn3)sc21)OCCO [Compound I-088] | > 50 | > 50 | 0.4 (≈ 0.699 µM) | 2 (≈ 3.49 µM) | 0.08 (≈ 0.14 µM) | 2 (≈ 3.49 µM) | 0.08 (≈ 0.14 µM) | 0.08 (≈ 0.14 µM) | – | – | – | – | – | – | – | – | –
7 | CCOC(=O)c1sc2c(c1C)c(=O)n(C(C)(C)C(N)=O)c(=O)n2C[C@H](OCCC#N)c1cc(F)ccc1OC [Compound I-180] | – | – | – | – | – | – | – | – | > 50 | > 50 | 10 (≈ 17.8 µM) | 50 (≈ 89.2 µM) | 10 (≈ 17.8 µM) | > 50 | 2 (≈ 3.57 µM) | 0.4 (≈ 0.714 µM) | –
8 | COc1ccc(F)cc1[C@H](Cn1c(=O)n(C(C)(C)C(N)=O)c(=O)c2c(C)c(-n3cccn3)sc21)OCCC#N [Compound I-190] | – | – | – | – | – | – | – | – | – | – | – | – | – | – | – | – | IC90 (Septoria tritici (St); [5]): > 50 µg/mL; IC90 [1, 6]: > 50 µg/mL; IC90 [2, 7]: 50 µg/mL (≈ 90.2 µM); IC90 [3, 8]: > 50 µg/mL; IC90 (Rhizoctonia solani (Rs); [9]): 10 µg/mL (≈ 18 µM); IC90 (Diplodia maydis (Dm); [10]): > 50 µg/mL; IC90 (Botrtyis cinerea (Bc); [11]): 10 µg/mL (≈ 18 µM); IC90 [4, 12]: 10 µg/mL (≈ 18 µM)
9 | C=CCNC(=O)C(C)(C)n1c(=O)c2c(C)c(-n3nccn3)sc2n(C[C@H](OC2CCOCC2)c2cc(F)ccc2OC)c1=O [Compound I-079] | > 50 | > 50 | 0.4 (≈ 0.638 µM) | 2 (≈ 3.19 µM) | 0.4 (≈ 0.638 µM) | 2 (≈ 3.19 µM) | 2 (≈ 3.19 µM) | 0.08 (≈ 0.128 µM) | – | – | – | – | – | – | – | – | –
10 | COc1ccc(F)cc1[C@H](Cn1c(=O)n(C(C)(C)C(=O)NCC#N)c(=O)c2c(C)c(-n3nccn3)sc21)OC(C)C [Compound I-160] | > 50 | > 50 | 2 (≈ 3.43 µM) | ≥ 10 | ≥ 50 | 10 (≈ 17.1 µM) | 2 (≈ 3.43 µM) | 2 (≈ 3.43 µM) | – | – | – | – | – | – | – | – | –
